Three compounds from article PMC5507300, “Antibacterial small molecules targeting the conserved TOPRIM domain of DNA gyrase” (PLoS ONE, 2017) can be followed below.

As usually defined, the EC50 is the concentration giving half of the maximal effect. A low value points to an effect from little substance.

Converted amounts (≈) assume the structure as drawn. “And” between values parts separate entries of the source, which are not always exact repeats. Equal values may be shown once. Read-outs that look alike come from different tables or passages of the source.

Type in all cases: cell-based
In data set [1] the test system is A. baumanii MB9797 (ATCC19606). In words: Broth microdilution MIC, A. baumannii MB9797. Particulars: Acinetobacter baumannii. The source says: (§1) E. coli HS151 (ΔtolC) has been described previously. Gyrase inhibitor-resistant isolates (GYR101-108) were derived by selection for spontaneous resistance to MRL-770 or MRL-423 (Fig 1) in E. coli HS151 as described below. E. coli BW25113 and the Keio gene deletion collection based on BW25113 [25] were obtained from Thermo Fisher Scientific (Waltham, MA) and described in [26]. The plasmid-borne FQ resistance determinant, qnrVC3 [27], was kindly provided by D. Hooper (Massachusetts General Hospital). MB9796 (A. baumannii) is a derivative of MB9797 (ATCC19606) lacking lipopolysaccharide. The efflux-defective P. aeruginosa strain MB5890 (CB398) is a derivative of MB5919 (PAO1). MB2884 (E. coli) and CL15245 (K. pneumoniae) are clinical isolates from the Merck & Co., Inc., Kenilworth, NJ, USA, strain collection. S. aureus COL is a methicillin-resistant clinical isolate.
(§2) Compound doubling dilutions were prepared in 100% DMSO (Sigma Aldrich) and 2 μL of each dilution was transferred to a 96-well plate with lid (Thermo Scientific). Inoculum for all MIC testing was prepared using the BBL Prompt Inoculation System (Becton Dickinson, Franklin Lakes, NJ USA) as described by the manufacturer to produce a suspension of cells at approximately 1.5 x 10^8 colony forming units (CFU)/mL [34–36] and a further dilution (1:1000) was made into cation adjusted Mueller-Hinton broth (CAMH broth, Becton-Dickinson). One hundred μL of this inoculum were then transferred to each well of the 96-well plate containing diluted compound (above). Plates were covered and incubated overnight (18 hrs.) at 37°C.
(In broth dilution the organism is exposed to a series of concentrations in liquid medium.)

Data set [2] relates to A. baumannii ΔlpxC MB9796. In words: Broth microdilution MIC, A. baumannii MB9796. Particulars: Acinetobacter baumannii.
Text: as §1, §2

Data set [3] concerns E. coli GYR107 GyrB F513L/L422V. In words: microbe, parasite or virus in culture. To be noted: Escherichia coli.
Text: (§3) E. coli HS151 (ΔtolC) has been described previously. […] E. coli BW25113 and the Keio gene deletion collection based on BW25113 [25] were obtained from Thermo Fisher Scientific (Waltham, MA) and described in [26]. The plasmid-borne FQ resistance determinant, qnrVC3 [27], was kindly provided by D. Hooper (Massachusetts General Hospital). […] MB2884 (E. coli) and CL15245 (K. pneumoniae) are clinical isolates from the Merck & Co., Inc., Kenilworth, NJ, USA, strain collection. S. aureus COL is a methicillin-resistant clinical isolate.
as §2
(§4) After the agar solidified, 5 μL of a saturated bacterial culture, grown in CAMH broth, were dispensed on the agar surface and allowed to dry at room temperature. […] After the surface dried at room temperature the plate was incubated at 37°C overnight. […] Genomic DNA from the parent strain (E. coli HS151) and purified (restreaked) resistant isolates was obtained with a GeneJET genomic DNA purification kit according to the manufacturer’s instructions (Fisher Scientific). Assembled whole genome mutant sequences were then compared to the parent strain and polymorphisms were identified as described.

Data set [4] relates to E. coli GYR104 GyrB L470I. In words: microbe, parasite or virus in culture. To be noted: Escherichia coli.
Text: as §3, §2, §4

Data set [5] has as its system E. coli GYR106 GyrB F513L/A468V. Put plainly: microbe, parasite or virus in culture. Particulars: Escherichia coli.
Text: as §3, §2, §4

Data set [6] has as its system E. coli GYR108 GyrB L470I/V467L. Put plainly: microbe, parasite or virus in culture. To be noted: Escherichia coli.
Text: as §3, §2, §4

Data set [7] has as its system E. coli GYR102 GyrB E466EV. Put plainly: microbe, parasite or virus in culture. Particulars: Escherichia coli.
Text: as §3, §2, §4

Data set [8] deals with E. coli GYR105 GyrB T469K. Put plainly: microbe, parasite or virus in culture. To be noted: Escherichia coli.
Text: as §3, §2, §4

The subject of data set [9] is E. coli GYR101 GyrB F513L. In words: microbe, parasite or virus in culture. To be noted: Escherichia coli.
Text: as §3, §2, §4

Data set [10] relates to P. aeruginosa MB5919 (PAO1). In words: Broth microdilution MIC, P. aeruginosa MB5919. Particulars: Pseudomonas aeruginosa.
Text: as §3, §2

For a further data set, the system named is S. aureus (MRSA) COL. Put plainly: Broth microdilution MIC, S. aureus COL. Particulars: Staphylococcus aureus, MRSA.
Text: as §1, §2

Data set [11] relates to E. coli MB2884 (clinical isolate). In words: Broth microdilution MIC, E. coli MB2884. To be noted: Escherichia coli.
Text: as §3, §2

A further data set relates to E. coli HS151 (ΔtolC). In words: microbe, parasite or virus in culture. To be noted: Escherichia coli.
Text: as §3, §2

The subject of data set [12] is P. aeruginosa(effluxΔ) MB5890. Put plainly: microbe, parasite or virus in culture. To be noted: Pseudomonas aeruginosa.
Text: as §3, §2

A further data set deals with HeLa Cell. Put plainly: HeLa cell cytotoxicity. To be noted: for EC50: Homo sapiens, HeLa, Average value (n = 2), cytotoxicity; for Fold above MIC: HeLa EC50 relative to MIC for E. coli HS151.
A further data set concerns E. coli CIP101 GyrA D87N. Put plainly: microbe, parasite or virus in culture. To be noted: Escherichia coli. As to the method:
as §2

For data set [13], the system named is K. pneumoniae CL15245 (clinical isolate). Put plainly: Broth microdilution MIC, K. pneumoniae CL15245. Particulars: Klebsiella pneumoniae.
Text: as §3, §2

In data set [14] the test system is E. coli GYR103 GyrB L446Q. In words: microbe, parasite or virus in culture. Particulars: Escherichia coli.
Text: as §1, §2
After the agar solidified, 5 μL of a saturated bacterial culture, grown in CAMH broth, were dispensed on the agar surface and allowed to dry at room temperature. […] To select for resistance, a 100 mm petri dish was filled with 25 mL CAMH agar containing 8 μg/mL MRL-770 or 0.5 μg/mL MRL-423 (Fig 1). The cells in 1 mL of an overnight culture of E. coli HS151 (~10^9 CFU/mL) were concentrated by centrifugation and spread onto the surface of an MRL-770 or MRL-423 containing plate. After the surface dried at room temperature the plate was incubated at 37°C overnight. Any colonies that arose were counted and an approximate frequency of resistance was calculated after confirming resistance by restreaking on media containg compound as well as measuring MICs (see Results). Genomic DNA from the parent strain (E. coli HS151) and purified (restreaked) resistant isolates was obtained with a GeneJET genomic DNA purification kit according to the manufacturer’s instructions (Fisher Scientific). Assembled whole genome mutant sequences were then compared to the parent strain and polymorphisms were identified as described.

The mark [15] stands for this setting: Table 2, HS151, GyrB mutation none.
The mark [16] stands for this setting: read-out: E. coli HS151 MIC, S1 Table.

On to `Cn1ncc2cc(-c3cnnn3C3CCN(C(=O)Nc4cc(Cl)cc(Cl)c4)CC3)ccc21` [MRL-423], for which the MIC in [1] was over 64 µg/mL; in data set [2] it was 0.5 µg/mL (≈ 1.06 µM); in [3], over 64 µg/mL; in data set [4] it was 1 µg/mL (≈ 2.13 µM); in data set [5] it was over 64 µg/mL; in data set [6], over 64 µg/mL. For the same compound, the MIC is over 64 µg/mL in data set [7]; 1 µg/mL (≈ 2.13 µM) in data set [8]; 2 µg/mL (≈ 4.25 µM) in data set [9]; over 64 µg/mL in data set [10]; over 64 µg/mL in the data set on S. aureus (MRSA) COL; over 64 µg/mL in data set [11]. The MIC in the data set on E. coli HS151 (ΔtolC) (Table 1, HS151 E. coli ΔtolC) was 0.25 µg/mL; with E. coli HS151 (ΔtolC) (setting [15]), 0.25 µg/mL; against E. coli HS151 (ΔtolC) (Table 3, HS151), 0.25 µg/mL; in the data set with E. coli HS151 (ΔtolC) (setting [16]), 0.53 µM; in data set [12], 1 µg/mL (≈ 2.13 µM); against E. coli CIP101 GyrA D87N, 0.25 µg/mL (≈ 0.532 µM). The MIC in [13] was over 64 µg/mL; in data set [14] it was 0.5 µg/mL (≈ 1.06 µM). The 50% effective concentration (EC50) with HeLa Cell is 27.1 µM.
Regarding `COc1ccc(C)cc1NC(=O)N1CCC(n2nncc2-c2ccc3c(cnn3C)c2)CC1` [MRL-770], the MIC in data set [1] is over 64 µg/mL; in [2] it was 4 µg/mL (≈ 8.98 µM); in [3], over 64 µg/mL; in data set [4] it was over 64 µg/mL; in data set [5] it was over 64 µg/mL; in data set [6] it was over 64 µg/mL. Besides, the MIC in data set [7] was over 64 µg/mL; in [8] it was 1 µg/mL (≈ 2.24 µM); in [9] it was over 64 µg/mL; in data set [10], over 64 µg/mL; in the data set on S. aureus (MRSA) COL, over 64 µg/mL; in [11], over 64 µg/mL. Moreover, the MIC against E. coli HS151 (ΔtolC) (Table 1, HS151 E. coli ΔtolC) is 2 µg/mL; against E. coli HS151 (ΔtolC) (setting [15]) it was 2 µg/mL; in the data set with E. coli HS151 (ΔtolC) (setting [16]) it was 4.5 µM; in the data set on E. coli HS151 (ΔtolC) (read-out: minimum inhibitory concentration (MIC), quoted in text with macromolecule labeling in E. coli JL553, strain not named at place, value equals HS151), 4.5 µM and 2 µg/mL; in [12], 4 µg/mL (≈ 8.98 µM); against E. coli CIP101 GyrA D87N it was 2 µg/mL (≈ 4.49 µM). The MIC in data set [13] and in [14] was over 64 µg/mL each time. Besides, in the data set on HeLa Cell, the “Fold above MIC” value is over 22 fold. In addition, the concentration for a half-maximal effect (EC50) in the data set with HeLa Cell was over 100 µM.
With `Cn1ncc2cc(-c3nnnn3C3CCN(C(=O)Nc4ccc(Cl)c(Cl)c4)CC3)ccc21` [MRL-1082], the MIC in data set [1] was over 64 µg/mL; in data set [2] it was 0.5 µg/mL (≈ 1.06 µM); in data set [3], over 64 µg/mL; in data set [4] it was 0.25 µg/mL (≈ 0.53 µM); in [5], over 64 µg/mL; in [6], 2 µg/mL (≈ 4.24 µM). In addition, the MIC in [7] is 8 µg/mL (≈ 17 µM); in data set [8], 0.25 µg/mL (≈ 0.53 µM); in data set [9], over 64 µg/mL; in data set [10], over 64 µg/mL; against S. aureus (MRSA) COL, over 64 µg/mL; in data set [11] it was over 64 µg/mL. The MIC against E. coli HS151 (ΔtolC) (Fig 4 legend, E. coli HS151) came out at 0.0625 µg/mL; in the data set on E. coli HS151 (ΔtolC) (Table 1, HS151 E. coli ΔtolC) it was 0.0625 µg/mL; against E. coli HS151 (ΔtolC) (setting [15]), 0.0625 µg/mL; in the data set with E. coli HS151 (ΔtolC) (setting [16]), 0.13 µM; in data set [12], 0.25 µg/mL (≈ 0.53 µM); against E. coli CIP101 GyrA D87N, 0.125 µg/mL (≈ 0.265 µM). The values for the MIC in data set [13] and in data set [14] were over 64 µg/mL and 0.0625 µg/mL (≈ 0.133 µM), respectively. Besides, in the data set on HeLa Cell, the “Fold above MIC” value is recorded as 140 fold. Moreover, the EC50 with HeLa Cell was 18.2 µM.
